pIC50: −log10 of the molar value. Where a SMILES comes first, the peptide text is derived from it. Bridges are numbered along the chain shown (N, C = ends). [ ]: non-standard residue; d: D form. S5 = C=CCCC[C@](C)(N)C(=O)O

Series [1] has as its target Spike glycoprotein/Angiotensin-converting enzyme 2 (Severe acute respiratory syndrome coronavirus 2) (UniProt Q9BYF1+P0DTC2). Description: Inhibition of SARS-CoV-2 spike protein RBD- human ACE2 interaction at 30 uM incubated for 1 hr by colorimetric ELISA assay relative to control. (An ELISA detects its analyte on a solid surface through an enzyme-linked reagent.)
Series [2] has as its target Spike glycoprotein/Angiotensin-converting enzyme 2 (Severe acute respiratory syndrome coronavirus 2, UniProt P0DTC2). Description: Inhibition of SARS-CoV-2 spike protein RBD- human ACE2 interaction incubated for 1 hr by colorimetric ELISA assay.
Series [3] is described as follows: Stability in human plasma assessed as peptide degradation at 200 ug/ml incubated for 48 hrs by LC-MS/MS analysis. The format is ADME, cell-free. The conditions noted are these: at 200 µg/mL.

Usually inhibition stands for the drop in the measured response relative to a control, in per cent. Higher therefore signals strong suppression. As usually defined, the pIC50 is the negative decadic logarithm of the IC50, by convention in mol/L. Read a low pIC50 as a high IC50. In series [1], `CC(C)C[C@@H]1NC(=O)[C@H](CC(=O)O)NC(=O)[C@H](CCC(=O)O)NC(=O)[C@@](C)(NC(=O)[C@H](CCC(=O)O)NC(=O)[C@@H](N)Cc2c[nH]cn2)CCC/C=C\CCC[C@@](C)(C(=O)N[C@@H](Cc2ccc(O)cc2)C(=O)N[C@@H](CCC(N)=O)C(N)=O)NC1=O` (H-HE[S5]EDL[S5]YQ-NH2; staple (Z) 3-7) registered an inhibition of 55%. Further, in series [2], the pIC50 is 4.68. In series [3], the Stability result is reported as “Stable”.
As for H-HEAEDLFYQ-NH2, the Stability result in series [3] was “Stable”.

Values taken from ChEMBL document CHEMBL5346879, “Identification of a short ACE2-derived stapled peptide targeting the SARS-CoV-2 spike protein” (Eur J Med Chem, 2023).
